Series [1] deals with mouse bone marrow-derived macrophages (BMDMs). The series can be described thus: Trained immunity in vitro model, TNFα by ELISA after LPS. It is filed as cell-based. Particulars: for TNF-alpha overproduction in trained LysMΔSHIP-1 BMDMs: 30 min pre-incubation before beta-glucan training; for boost of trained immunity (TNF alpha) in absence of SHIP-1: LysMΔSHIP-1 BMDMs, beta-glucan-trained, 30 min pre-incubation. As for the experimental part: BMDMs (10^5) were plated in 96-well plates (200-μl final volume, Corning) and stimulated with R10 or 100 μg/ml β-glucan (whole glucan particles, WGP, Biothera, Eagan, Minn.) for 24h. Then, cells were washed and rested 3 days in culture medium. At day 4, BMDMs were washed again and primed with 25 ng/ml IFNγ (BD Biosciences, San Jose, Calif.) for 24h. On day 5, a final wash was performed and cells were stimulated with R10 or 1 μg/ml Escherichia coli LPS (EK, Invivogen, San Diego, Calif.). After 24h, supernatants were collected for TNFα measurement by ELISA (Opteia ELISA kit, BD Biosciences).
When required, BMDMs were pre-incubated for 30 minutes prior to β-glucan training with 1.5 μM Syk inhibitor (R406, Hozel diagnostic, Cologne, Germany), […] Raf-1 inhibitor (GW5074, Sigma), 500 μM MTA (5′-Deoxy-5′-(methylthio)adenosine, Sigma), 6 μM Pargyline (Sigma) or SHIP-1 inhibitor (SHIPi, 3-α-aminocholestane, 3AC, Calbiochem, Darmstad, Germany) at the indicated doses. Inhibitors were also added in the first wash-out, before the resting period.
(§1) For TNFα normalization, the fold of cells in each condition was calculated as follows: (Live cell number in condition X)/(live cell number in non-trained WT condition). In case of SHIP-1 inhibition experiments, non-treated cells were used as reference. Thus, TNFα per cell number was normalized as (absolute TNFα value)/(fold of cells).
In general terms: ELISA stands for enzyme-linked immunosorbent assay.

Series [2] deals with mouse BMDMs. The series can be described thus: BMDM viability in the training scheme (FACS, Hoechst 33258 exclusion). It counts as cell-based. Here is the method: To assess receptor expression and cell viability, 6·10^5 BMDMs were plated in non-treated 24-well plates (1200-μl final volume, Corning) and followed the training scheme described above. Dectin-1 expression was evaluated at day 0 prior to β-glucan addition. Cell viability and TLR4 expression were assessed on day 5 before LPS stimulation. At indicated times, cells were collected in PBS/EDTA and stained on ice-cold FACS Buffer (PBS/EDTA plus 3% FBS) for flow cytometry analysis.
Samples were stained with the appropriate antibody cocktails in ice-cold FACS Buffer at 4° C. for 15 minutes. Antibodies included mouse PE-anti-TLR4 (BioLegend, San Diego, Calif.) and APC-anti-Dectin-1 (Bio-Rad). Dead cells were excluded by Hoechst 33258 (Invitrogen, Carlsbad, Calif.) incorporation. Purified anti-FcγRIII/II (2.4G2, TONBO Bioscience, San Diego, Calif.) was used to block murine Fc-receptors at 4° C. for 10 minutes in all the stainings. Events were acquired using FACSCanto 3L (BD Biosciences). Data were analyzed with FlowJo software (Tree Star, Ashland, Oreg.).

Series [3] concerns human peripheral blood mononuclear cells (PBMCs). The series can be described thus: Trained immunity in vitro model in human PBMCs, TNFα by ELISA after LPS. It counts as cell-based. The settings on record: beta-glucan-trained human PBMCs, 10 μM 3AC, LPS stimulation. Here is the method:
Total PBMCs (5·10^5) were plated in 96-well plates (200-μl final volume) and stimulated with 100 μg/ml β-glucan for 24h. Then, cells were washed and rested 6 days in culture medium. At day 7, PBMCs were stimulated with 1 μg/ml LPS (EK). After 24h, supernatants were collected for TNFα measurement by ELISA (Human TNFα DuoSet, R&D Systems, Abingdon, UK). When required, PBMCs were pre-incubated for 30 minutes prior to β-glucan training with 10 μM 3AC. Inhibitor was also added together with the first wash-out, before the resting period.
as §1

Series [4] deals with human PBMCs. The series can be described thus: Viability of cells in human PBMC training scheme. It is filed as cell-based. Particulars: non-trained cells in human PBMC experiment (not shown). As for the experimental part: To assess cell viability, 3·10^6 total PBMCs were plated in 24-well plates (1200-μl final volume, Corning) and followed the training scheme described here. At day 7, prior to LPS stimulation, cells were collected in PBS/EDTA and stained on ice-cold FACS Buffer for flow cytometry analysis.

For series [5], the system named is Candida albicans SC5314. The series can be described thus: In vivo training followed by lethal systemic Candida albicans infection, survival. The arrangement: species or system mouse. The settings on record: 0.11 mg 3AC i.p. days -8 and -7, lethal 2·10^6 C. albicans i.v. Here is the method: Mice were trained with either two intraperitoneal (i.p.) injections of 1 mg β-glucan particles on days −7 and −4 or 2·10^4 Candida albicans intravenously (i.v) on day −7. Sterile PBS was used as control. One week later, mice were challenged with 5 μg E. coli LPS (serotype 055:B5, Sigma) i.p. and blood was collected 60 min later to assess the serum TNFα (Mouse TNFα DuoSet, R&D Systems). Alternatively, mice were lethally infected with 2·10^6 C. albicans i.v. and monitored daily for weight, general health and survival, following the institutional guidance. When required mice were i.p. treated with 0.11 mg 3AC on days −8 and −7.3AC was diluted in PBS 0.3% hydroxypropylcellulose (Sigma), used as control.

Series [6] has as its target T1, SHIP-1 (Homo sapiens, UniProt Q92835).
T1 sequence (Q92835 1-1189): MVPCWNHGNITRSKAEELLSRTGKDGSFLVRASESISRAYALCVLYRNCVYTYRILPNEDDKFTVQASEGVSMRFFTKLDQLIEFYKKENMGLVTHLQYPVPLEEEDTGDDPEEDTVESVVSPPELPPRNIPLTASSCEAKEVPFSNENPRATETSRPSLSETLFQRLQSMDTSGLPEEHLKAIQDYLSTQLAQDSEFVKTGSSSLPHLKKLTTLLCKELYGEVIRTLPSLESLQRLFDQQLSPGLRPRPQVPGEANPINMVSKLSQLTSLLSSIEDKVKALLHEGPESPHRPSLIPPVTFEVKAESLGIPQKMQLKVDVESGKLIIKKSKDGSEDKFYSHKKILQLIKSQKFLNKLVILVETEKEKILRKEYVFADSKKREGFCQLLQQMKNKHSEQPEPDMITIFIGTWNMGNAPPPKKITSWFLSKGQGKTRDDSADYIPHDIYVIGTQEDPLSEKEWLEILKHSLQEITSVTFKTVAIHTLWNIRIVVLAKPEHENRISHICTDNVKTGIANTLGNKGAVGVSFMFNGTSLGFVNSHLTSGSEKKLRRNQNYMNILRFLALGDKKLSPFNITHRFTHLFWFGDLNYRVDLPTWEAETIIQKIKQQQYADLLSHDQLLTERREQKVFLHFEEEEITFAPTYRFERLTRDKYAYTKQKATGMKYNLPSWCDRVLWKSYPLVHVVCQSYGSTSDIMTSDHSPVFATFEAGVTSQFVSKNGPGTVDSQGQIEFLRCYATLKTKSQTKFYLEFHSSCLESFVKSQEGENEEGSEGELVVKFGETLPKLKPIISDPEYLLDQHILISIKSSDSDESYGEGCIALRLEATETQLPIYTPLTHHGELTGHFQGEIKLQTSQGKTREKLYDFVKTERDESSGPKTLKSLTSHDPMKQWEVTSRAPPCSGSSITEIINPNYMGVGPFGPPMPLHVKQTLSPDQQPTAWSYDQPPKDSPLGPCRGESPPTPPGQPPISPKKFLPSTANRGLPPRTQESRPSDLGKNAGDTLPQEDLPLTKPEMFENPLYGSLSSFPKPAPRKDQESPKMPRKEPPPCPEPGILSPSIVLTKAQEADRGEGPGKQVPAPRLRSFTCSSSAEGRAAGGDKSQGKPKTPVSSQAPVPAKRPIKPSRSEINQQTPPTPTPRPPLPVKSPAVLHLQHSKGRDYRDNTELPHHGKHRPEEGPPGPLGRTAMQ
Particulars: SHIP-1 inhibitor 3AC; value given in parentheses, no test described; cited from earlier work.

For orientation: IC50 means the concentration at which inhibition is half-maximal.

In the case of `C#CCN(C)Cc1ccccc1` [pargyline, Pargyline], the “TNF-alpha overproduction in trained LysMΔSHIP-1 BMDMs” value in series [1] (6 μM) is given as “had no effect”.

For the molecule `COc1cc(Nc2ncc(F)c(Nc3ccc4c(n3)NC(=O)C(C)(C)O4)n2)cc(OC)c1OC` [R406], the “boost of trained immunity (TNF alpha) in absence of SHIP-1” value in series [1] (1.5 μM) is listed as “abolished the boost of trained immunity”.

For the molecule `O=C1Nc2ccc(I)cc2/C1=C/c1cc(Br)c(O)c(Br)c1` [GW5074], the “boost of trained immunity (TNF alpha) in absence of SHIP-1” value in series [1] is “did not affect this process”.

On to `CC(C)CCC[C@@H](C)[C@H]1CC[C@H]2[C@@H]3CC[C@H]4C[C@H](N)CC[C@]4(C)[C@H]3CC[C@]12C` [3AC, 3α-aminocholestane], for which the “TNF-alpha production in supernatants” value in series [1] (beta-glucan-trained BMDMs, different doses of 3AC 30 min before training and after wash-out, LPS challenge) is “boosted TNF-alpha production in a dose-dependent manner”; in series [3], “boosted TNF-alpha production”. The “survival of non-trained BMDMs” value in series [2] (5 day-long in vitro culture in the presence of 3AC) is given as “did not survive”. Moreover, in series [2] (beta-glucan-trained, in the presence of 3AC), the “survival of trained BMDMs” value is recorded as “did not affect survival”. In addition, the “toxicity for non-trained cells” value in series [4] was “toxic”. Further, in series [5], the “survival of non-trained mice” value is given as “did not impact on the survival”. For the same molecule, the “survival of Candida-trained mice” value in series [5] (training 2·10^4 C. albicans i.v. day -7) is “improved the survival”. In series [6], the IC50 is 13.5 µM.

For `CSC[C@H]1O[C@@H](n2cnc3c(N)ncnc32)[C@H](O)[C@@H]1O` [MTA, 5′-Deoxy-5′-(methylthio)adenosine], the “TNF-alpha overproduction in trained LysMΔSHIP-1 BMDMs” value in series [1] (500 μM) is listed as “inhibited the increase in TNF-alpha”.

The values above are taken from US20210186989A1, “ENHANCED TRAINED IMMUNITY IN MYELOID CELLS BY SHIP-1 INHIBITION” (CENTRO NACIONAL DE INVESTIGACIONES CARDIOVASCULARES CARLOS …, priority 2018, published 2021).
